# Measured values from patent publication US20240417403A1, “CRYSTALLINE FORMS OF QUINAZOLINE DERIVATIVES, PREPARATION, COMPOSITION AND USE THEREOF” (Hoffmann-La Roche Inc., priority 2021, published 2024).
# Like-named read-outs stand apart in the source and are kept apart here. Marks after values point to notes of the source that are not given here.
# Legend:
# Format in all cases: physicochemical
# [1] = Equilibrium solubility in pH 6.8 buffer; details: 37° C., stirred 24 hours
# Protocol: (§1) An Agilent 1260 HPLC instrument was utilized and detailed chromatographic conditions for purity and solubility analysis were listed in Table 6.
# About 5˜10 mg of solids were suspended in pH 6.8 buffer to get a mixture. The suspensions were stirred for 24 hours, followed by centrifugation and filtration to obtain supernatants for HPLC test.
# Crystal habit by PLM = test: Crystal habit by PLM
# Source text: The PLM images were captured with Carl Zeiss Axio Scope. A1 microscope at RT.
# PLM was used to observe the crystal habit of the particles (amorphous freebase and Fumarate Type A).
# [2] = Contact angle against water (wettability)
# Protocol: The wettability of the solid forms was evaluated by the contact angle against water.
# [3] = Angle of repose (flowability); details: listed as Freebase amorphous
# Source text: Form the angle of repose on a fixed base with a retaining lip to retain a layer of powder on the base. Carefully build up a symmetrical cone of powder. Determine the angle of repose by measuring the height (h) and base radius (r) of the cone of powder and calculating the angle of repose a from the following equation α=tan^−1(h/r).
# (§2) The results of amorphous freebase, Freebase Type F, Fumarate Type B and Fumarate Type E for flowability and compressibility were summarized in Table 30. Generally, powders with smaller Karl index would show better compressibility and flowability. And powders with smaller angle of repose would show better flowability.
# [4] = Equilibrium solubility in pH 4.5 buffer; details: 37° C., stirred 24 hours
# Protocol: as §1
# About 5˜10 mg of solids were suspended in pH 4.5 buffer to get a mixture. The suspensions were stirred for 24 hours, followed by centrifugation and filtration to obtain supernatants for HPLC test.
# [5] = Solid state stability, 40° C./75% RH/open for 1 month (XRPD, HPLC purity); details: for Form Change / Purity/Initial by HPLC area %: 40° C., 75% RH, open; for Form Change: by XRPD
# Protocol: as §1
# To evaluate the solid state stability of the selected forms (amorphous freebase, Freebase Type F, Fumarate Type A and Fumarate Type B) samples were stored under 40° C./75% RH/open for 1 month. Stability samples were characterized by XRPD to check any solid form change and by HPLC to check purity change.
# [6] = Equilibrium solubility in H2O; details: 37° C., stirred 24 hours
# Protocol: as §1
# About 5˜10 mg of solids were suspended in H2O to get a mixture. The suspensions were stirred for 24 hours, followed by centrifugation and filtration to obtain supernatants for HPLC test.
# [7] = Bulk density, tap density and Carr index (flowability and compressibility); details: listed as Freebase amorphous
# Protocol: Bulk density was determined by adding appropriate amount (m) of material into a 5 mL graduate cylinder and recording its apparent volume (v0). The bulk density was obtained by dividing the amount of material by its apparent volume of the unsettled material (ρ0=m/v0). For tap density, the cylinder was then tapped for 200 times. The tap density was then calculated by dividing the amount of material by its final tapped volume (ρ1=m/v1). Carr index=(ρ1−ρ0)/ρ1.
# as §2
# [8] = Kinetic solubility in FaSSIF; details: FaSSIF, 37 °C, thermodynamic from solid
# Protocol: as §1
# Kinetic solubility of amorphous freebase and Fumarate Type B/E was measured in FaSSIF to evaluate the solubility. […] After centrifugation, supernatants were collected for HPLC tests.
# [9] = TGA and DSC/mDSC thermal analysis (characterization of forms); details: for TGA weight loss (%, temp.): to 150° C.
# Protocol: In salt screening and evaluation and in polymorph study, TGA was performed using a TA Q500, TA Q5000 or Discovery 5500 TGA from TA Instruments. DSC or mDSC was performed using a TA Q200/Q2000 or Discovery 2500 DSC from TA Instruments.
# Hygroscopicity by DVS = test: Hygroscopicity by DVS
# Protocol: DVS is measured via a SMS (Surface Measurement Systems) DVS Intrinsic. The relative humidity at 25° C. is calibrated against deliquescence point of LiCl, Mg(NO3)2 and KCl.
# DVS isotherm plot was collected at 25° C. to investigate the selected solid forms stability as a function of humidity. Compared with amorphous freebase, the hygroscopicity of Freebase Type B, Fumarate Type A, Fumarate Type B and Fumarate Type E was lower under 80% RH/25° C.
# [10] = Mechanical stability (XRPD form change after grinding and tableting); details: for XRPD form change after grinding: grinding ~5 min; for XRPD form change after tableting: tableting ~234 Mpa
# Protocol: Mechanical stability of the solid forms was evaluated by monitoring the XRPD form change after grinding (˜5 min) and tableting (˜234 Mpa).
# [11] = Form change on storage/exposure at ambient conditions (XRPD); details: storage / exposure at ambient condition (Freebase Type E: 30 m)
# Protocol: About 15 mg of Fumarate Type A of compound (I) was suspended in 0.5 mL of H2O in an HPLC vial. The suspension was magnetically stirred at a speed of about 1000 rpm at RT for 9 days. The wet solids were isolated to afford Fumarate Type C of compound (I) (wet sample was analyzed). […] XRPD patterns and data were shown in FIG. 10 and Table 10, respectively.
# About 60 mg of Amorphous Freebase of compound (I) was suspended in 2 mL of THF/H2O (1:4, v/v) in an HPLC vial. The suspension was magnetically stirred at a speed of about 1000 rpm at 5° C. for 4 days. The solids were isolated via centrifugation and dried at ambient condition for about 2 hours. After sweeping the solids by N2 for 20 min at 30° C. Freebase Type E of compound (I) was obtained.
# [12] = Slurry competition (interconversion of free base forms at different water activity); details: slurry at 24 ±3° C.
# Protocol: Slurry competition experiments were performed to study the interconversion relationship between Freebase Type B and Freebase Type C. […] The inter-conversion relationship among anhydrate Freebase Type B and hydrates Type C/F/G was further investigated under different water activities at RT. the saturated solution of Freebase Type B was obtained via slurry of Freebase Type B at RT overnight in corresponding solvent systems. A mixture of Freebase Type B+C+F+G was added into corresponding saturated solution of Freebase Type B to form suspensions. The suspensions were sampled for XRPD after being stirred for four days at a speed of 750 rpm under RT.
Solubility in pH 4.5 buffer [4] [mg/mL],Form Change [5],Solubility in H2O [6] [µg/mL],"TGA weight loss (%, temp.) ([9]; free base forms)",XRPD form change after grinding [10],XRPD form change after tableting [10],"TGA weight loss (150° C., %) ([9]; crystalline salts) [%]",Hygroscopicity (in words) (Hygroscopicity by DVS),Weight change at 80% RH/25° C. by DVS (Hygroscopicity by DVS) [%],SMILES,Crystal habit of the particles (Crystal habit by PLM),Form conversion at ambient conditions [11],further results
≥8.4,No,≥5000,–,No,No,1.9,slightly hygroscopic,0.8,"COc1ccc2ncnc(Nc3ccc(Oc4cc5ncnn5cn4)c(C)c3)c2c1O[C@@H]1CCN(C)CC1(F)F [Fumarate Type A, (R)-N-(4-([1,2,4]triazolo[1,5-c]pyrimidin-7-yloxy)-3-methylphenyl)-5-((3,3-difluoro-1-methylpiperidin-4-yl)oxy)-6-methoxyquinazolin-4-amine]",rod-like particles with regular shape,–,"Contact angle [2]: 20.3°; Purity/Initial by HPLC area % [5]: 100.1%; Purity change by HPLC (chemical stability) compared with amorphous freebase ([5]; 40° C./75% RH): lower purity change; Solid form change by XRPD (physical stability) ([5]; 40° C./75% RH/open): no form change; DSC endotherm (° C., peak) ([9]; crystalline salts): 167.6 °C; DSC endotherm (° C., peak) ([9]; fumarate forms): 167.6 °C; TGA weight loss (%, temp.) ([9]; fumarate forms): 1.9 (to 150° C.) %"
–,–,–,–,–,–,1.5,–,–,"COc1ccc2ncnc(Nc3ccc(Oc4cc5ncnn5cn4)c(C)c3)c2c1O[C@@H]1CCN(C)CC1(F)F [Fumarate Type C, (R)-N-(4-([1,2,4]triazolo[1,5-c]pyrimidin-7-yloxy)-3-methylphenyl)-5-((3,3-difluoro-1-methylpiperidin-4-yl)oxy)-6-methoxyquinazolin-4-amine]",–,Form conversion between Fumarate Type C and Fumarate Type B,–
0.3,–,–,3.5 (to 150° C.) %,No,No,–,slightly hygroscopic,0.2,"COc1ccc2ncnc(Nc3ccc(Oc4cc5ncnn5cn4)c(C)c3)c2c1O[C@@H]1CCN(C)CC1(F)F [Freebase Type B, (R)-N-(4-([1,2,4]triazolo[1,5-c]pyrimidin-7-yloxy)-3-methylphenyl)-5-((3,3-difluoro-1-methylpiperidin-4-yl)oxy)-6-methoxyquinazolin-4-amine]",–,–,"Critical water activity between Freebase Type B and Type C [12]: 0.8-1; DSC endotherm (° C., peak) ([9]; free base forms): 169.4 °C"

# Further lines, the molecule ahead of its results:
SMILES,Solubility in pH 4.5 buffer [4] [mg/mL],Form Change [5],Solubility in H2O [6] [µg/mL],"TGA weight loss (%, temp.) ([9]; free base forms)",XRPD form change after grinding [10],XRPD form change after tableting [10],"TGA weight loss (150° C., %) ([9]; crystalline salts) [%]",Hygroscopicity (in words) (Hygroscopicity by DVS),Weight change at 80% RH/25° C. by DVS (Hygroscopicity by DVS) [%],Crystal habit of the particles (Crystal habit by PLM),Form conversion at ambient conditions [11],further results
"COc1ccc2ncnc(Nc3ccc(Oc4cc5ncnn5cn4)c(C)c3)c2c1O[C@@H]1CCN(C)CC1(F)F [amorphous freebase, (R)-N-(4-([1,2,4]triazolo[1,5-c]pyrimidin-7-yloxy)-3-methylphenyl)-5-((3,3-difluoro-1-methylpiperidin-4-yl)oxy)-6-methoxyquinazolin-4-amine]",0.18,No,160,1.9 (to 150° C.) %,–,–,–,–,–,irregular-shaped particles without defined boundary,–,"Solubility in pH 6.8 buffer [1]: 0.15 mg/mL; Contact angle ([2]; listed as Freebase amorphous): 37.2°; Angle of repose [3]: 39.9°; Purity/Initial by HPLC area % ([5]; listed as Freebase amorphous): 99.2%; Carr index ([7]; (ρ1−ρ0)/ρ1): 43.8%; Bulk density [7]: 0.23 g/mL; Tapped density ([7]; tapped 200 times): 0.40 g/mL; solubility at 1 h ([8]; timepoint 1 h): 280 µg/mL; solubility at 2 h ([8]; timepoint 2 h): 270 µg/mL; solubility at 24 h ([8]; timepoint 24 h): 260 µg/mL; Tg, middle temperature ([9]; amorphous free base, starred value in DSC column): 58.7* ° C.; Weight change at 80% RH/25° C. by DVS (Hygroscopicity by DVS; listed as Freebase amorphous): 4.2%"
"COc1ccc2ncnc(Nc3ccc(Oc4cc5ncnn5cn4)c(C)c3)c2c1O[C@@H]1CCN(C)CC1(F)F [Freebase Type E, (R)-N-(4-([1,2,4]triazolo[1,5-c]pyrimidin-7-yloxy)-3-methylphenyl)-5-((3,3-difluoro-1-methylpiperidin-4-yl)oxy)-6-methoxyquinazolin-4-amine]",–,–,–,–,–,–,–,–,–,–,converted to Freebase Type C,–
